Literature values in patent publication US4866035A, “Dipeptidyl saccharides as host resistance enhancers in AIDS-immuno-compromised hosts and methods of use” (Merck & Co., Inc., priority 1987, dated 1989).
Like-named read-outs stand apart in the source and are kept apart here.

How the values were obtained:
[1] = test system: AIDS or ARC patients; conditions: ARC or AIDS-related conditions
[2] = in vivo
[3] = test system: patients
[4] = target: HIV reverse transcriptase (Human immunodeficiency virus type 1 group M subtype B, UniProt P04585)
[5] = test system: reverse transcriptase; conditions: in vitro
[6] = test system: human immunodeficiency virus (HIV)
[7] = clinical trials or use in patients

CO[C@H]1/C=C/O[C@@]2(C)Oc3c(C)c(O)c4c(c3C2=O)C2=NC3(CCN(CC(C)C)CC3)NC2=C(NC(=O)/C(C)=C\C=C\[C@H](C)[C@H](O)[C@@H](C)[C@@H](O)[C@@H](C)[C@H](OC(C)=O)[C@@H]1C)C4=O [Ansamycin]
clinical effect in patients [1]: some efficacy

Cc1cn([C@H]2C[C@H](N=[N+]=[N-])[C@@H](CO)O2)c(=O)[nH]c1=O [Azidothymidine, 3'-azido 3'-deoxythymidine]
half life in the body [2]: relatively short half life
penetration of central nervous system [2]: effectively penetrates central nervous system
oral absorption ([2]; po): Well absorbed orally
clinical effect in patients [1]: promise in prolonging lives

CC(C)(N1CC1C#N)N1CC1C(N)=O (stereo not drawn) [Azimexon]
adverse effects, tolerability [3, 7]: mild hemolysis
clinical effect in patients [1]: improvements in symptoms and immune function in patients with ARC but not AIDS

CC(C)(S)[C@@H](N)C(=O)O [D-Penicillamine, 3-mercapto D-valine]
adverse effects, tolerability ([3]; human, in vivo): temporarily depressed T cell levels
clinical effect in patients [1]: suppressed the virus

O=C(O)P(=O)(O)O [Foscarnet, trioodium phosphonoformate]
inhibition of HIV reverse transcriptase [4]: Inhibits HIV reverse transcriptase activity in vitro
adverse effects, tolerability ([3]; human, in vivo): serious side effects

CC(=O)Nc1ccc(C(=O)O)cc1.CC(=O)Nc1ccc(C(=O)O)cc1.CC(=O)Nc1ccc(C(=O)O)cc1.CC(O)CN(C)C.CC(O)CN(C)C.CC(O)CN(C)C.O=c1[nH]cnc2c1ncn2[C@@H]1O[C@H](CO)[C@@H](O)[C@H]1O [Inosine pranobex]
clinical effect in patients [1]: improve immune function in ARC patients

NC(=O)c1ncn([C@@H]2O[C@H](CO)[C@@H](O)[C@H]2O)n1 [Ribavirin, 1-β-D-ribofuranosyl-1,2,4-triazole 3-carboxamide]
adverse effects, tolerability [3, 7]: well tolerated
clinical effect in patients [1]: inhibited viral replication and improved immune function

Cc1ccc(C(=O)Nc2ccc(S(=O)(=O)O)c3cc(S(=O)(=O)O)cc(S(=O)(=O)O)c23)cc1NC(=O)c1cccc(NC(=O)Nc2cccc(C(=O)Nc3cc(C(=O)Nc4ccc(S(=O)(=O)O)c5cc(S(=O)(=O)O)cc(S(=O)(=O)O)c45)ccc3C)c2)c1 [Suramin]
inhibition of HIV reverse transcriptase [4]: Potent inhibitor of HIV reverse transcriptase
adverse effects, tolerability ([3]; human, in vivo): serious side effects

ammonium-21-tungsto-9-antimoniate [HPA-23]
inhibition of reverse transcriptase in several retroviruses [5]: Inhibits reverse transcriptase
effect on HIV growth or infectivity [6]: some tendency to check the growth of HIV
clinical effect in patients [1]: no therapeutic benefit has been documented

α-Interferon
effect on HIV growth or infectivity [6]: Checks the growth of HIV in vitro
clinical effect in patients [1]: induced tumor regression in some AIDS-related Kaposi's sarcoma cases
